Drawing on paper PMC10176470, “Engaging a Non-catalytic Cysteine Residue Drives Potent and Selective Inhibition of Caspase-6” (Journal of the American Chemical Society, 2023), this text covers enrich.exp.med, enrich.exp.med.lin and enrich.exp.med.log2 for 1 molecule.

The structures appear in SMILES notation.

Holding throughout (experiment): SILAC proteomics / in-gel fluorescence, competition of probe 13-t labeling by 3a
The target of experiment [1] is proteins of HEK293T cells transiently overexpressing caspase-6 (Homo sapiens, UniProt P27348). As to conditions: Comp; protein YWHAQ P27348.
The target of experiment [2] is T1, proteins of HEK293T cells transiently overexpressing caspase-6 (Homo sapiens, UniProt P22234).
T1 sequence (P22234 1-425): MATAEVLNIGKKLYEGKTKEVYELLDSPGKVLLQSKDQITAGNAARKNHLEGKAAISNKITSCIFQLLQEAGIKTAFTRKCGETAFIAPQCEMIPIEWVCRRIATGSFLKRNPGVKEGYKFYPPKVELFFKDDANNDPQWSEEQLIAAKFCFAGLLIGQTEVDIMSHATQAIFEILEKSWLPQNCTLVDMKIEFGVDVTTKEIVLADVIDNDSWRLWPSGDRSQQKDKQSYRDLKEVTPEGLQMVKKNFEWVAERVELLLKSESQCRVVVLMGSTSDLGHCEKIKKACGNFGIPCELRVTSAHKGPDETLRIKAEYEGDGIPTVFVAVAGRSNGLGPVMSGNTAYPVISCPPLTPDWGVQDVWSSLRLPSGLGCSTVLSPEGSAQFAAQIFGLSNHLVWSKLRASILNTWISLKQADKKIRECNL
The conditions noted are these: Comp; protein PAICS P22234.

In experiment [3] the target is proteins of HEK293T cells transiently overexpressing caspase-6 (Homo sapiens, UniProt P40939). As to conditions: Comp; protein HADHA P40939.
Experiment [4] has as its target T2, proteins of HEK293T cells transiently overexpressing caspase-6 (Homo sapiens, UniProt O43175).
T2 sequence (O43175 1-533): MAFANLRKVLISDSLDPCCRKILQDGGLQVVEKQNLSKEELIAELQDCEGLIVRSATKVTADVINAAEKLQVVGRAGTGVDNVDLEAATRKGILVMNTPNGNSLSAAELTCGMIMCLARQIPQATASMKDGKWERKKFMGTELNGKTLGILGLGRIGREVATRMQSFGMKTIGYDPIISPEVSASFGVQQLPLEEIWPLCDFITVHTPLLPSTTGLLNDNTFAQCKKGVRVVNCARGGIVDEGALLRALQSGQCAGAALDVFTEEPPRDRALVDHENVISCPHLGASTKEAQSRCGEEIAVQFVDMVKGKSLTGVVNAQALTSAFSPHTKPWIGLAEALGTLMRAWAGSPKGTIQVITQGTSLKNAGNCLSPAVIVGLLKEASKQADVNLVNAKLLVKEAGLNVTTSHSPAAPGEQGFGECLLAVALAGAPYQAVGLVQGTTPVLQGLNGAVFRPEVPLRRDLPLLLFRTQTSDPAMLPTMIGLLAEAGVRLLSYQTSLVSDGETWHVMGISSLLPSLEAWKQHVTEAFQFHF
As to conditions: Comp; protein PHGDH O43175.

Experiment [5] concerns the target proteins of HEK293T cells transiently overexpressing caspase-6 (Homo sapiens, UniProt Q14204).
Experiment [6] addresses proteins of HEK293T cells transiently overexpressing caspase-6 (Homo sapiens, UniProt P60900). As to conditions: Comp; protein PSMA6 P60900.
Experiment [7] has as its target proteins of HEK293T cells transiently overexpressing caspase-6 (Homo sapiens, UniProt P36578). The conditions noted are these: Comp; protein RPL4 P36578.
Experiment [8] addresses proteins of HEK293T cells transiently overexpressing caspase-6 (Homo sapiens, UniProt P12004). The conditions noted are these: Comp; protein PCNA P12004.
Experiment [9] deals with proteins of HEK293T cells transiently overexpressing caspase-6 (Homo sapiens, UniProt P26641). As to conditions: Comp; protein EEF1G P26641.
In experiment [10] the target is proteins of HEK293T cells transiently overexpressing caspase-6 (Homo sapiens, UniProt P46782). The conditions noted are these: Comp; protein RPS5 P46782.
For experiment [11], the target named is proteins of HEK293T cells transiently overexpressing caspase-6 (Homo sapiens, UniProt P13010). The conditions noted are these: Comp; protein XRCC5 P13010.
The mark [12] stands for this setting: protein DYNC1H1 (Q14204), Exp Comp, analysis C6, p 0.1250, 4 peptides.

With `C=CS(=O)(=O)N1C[C@H](C(=O)Nc2ccc(OC(F)(F)F)cc2)C[C@@H](c2ccccc2)C1` [3a], the enrich.exp.med in experiment [1] worked out at 0.7747; in [2] it was 0.7148; in experiment [3] it was 0.6753; in experiment [4] it was 0.8298; in [5] (Comp, protein DYNC1H1 Q14204), 1.335; in experiment [6] it was 0.7694. In addition, the enrich.exp.med in [7] amounted to 0.5872; in experiment [8], 0.6316; in [9] it was 0.7548; in experiment [10], 0.6107; in experiment [11], 0.6006. In [5] (setting [12]), this molecule came in with an enrich.exp.med.lin of 2.5227. The enrich.exp.med.log2 in [5] (setting [12]) was found to be 1.335.
